From ChEMBL document CHEMBL1131044, “Discovery and preclinical pharmacology of a novel, potent, nonsteroidal estrogen receptor agonist/antagonist, CP-336156, a diaryltetrahydronaphthalene” (J Med Chem, 1998)

Columns and labels:
[1] = molecular target: Estrogen receptor (Rattus norvegicus, UniProt P06211+Q62986)
[2] = Oral bioavailability in rat; type: ADME, organism-based; details: in vivo
[3] = organism: Rattus norvegicus
Description: In vivo prevention of bone loss in ovariectomised rats on oral administration

[4] = organism: Rattus norvegicus; remark: listed apart in the source
Description: In vivo prevention of reduced serum cholesterol in ovariectomised rats on oral administration

[5] = Oral bioavailability in cynomolgus monkey.; type: ADME, organism-based, Macaca fascicularis; details: in vivo
[6] = in vivo; details: rat, po

| SMILES | IC50 [1] | bioavailability [2] | ED50 [3] | ED50 [4] | also measured |
| --- | --- | --- | --- | --- | --- |
| COc1ccc2c(c1)CCC(c1ccccc1)C2c1ccc(OCCN2CCCC2)cc1 (centres undefined) | 132 nM |  |  |  |  |
| Oc1ccc2c(c1)OC(c1ccc(OCCN3CCCC3)cc1)C(c1ccccc1)=C2 (centres undefined) | 11.1 nM | 27% | 175 µg/day/kg | 175 µg/day/kg |  |
| COc1ccc2c(c1)CCC(c1ccccc1)=C2c1ccc(OCCN2CCCC2)cc1 [NAFOXIDINE] | 40.9 nM |  |  |  |  |
| O=C(c1ccc(OCCN2CCCCC2)cc1)c1c(-c2ccc(O)cc2)sc2cc(O)ccc12 [RALOXIFENE] |  |  | 500 µg/day/kg | 500 µg/day/kg | bioavailability ([5]; read-out: Bioavailabiility): 5%; bioavailability [6]: 10% |

Second part, led by results:

| IC50 [1] | bioavailability [2] | SMILES | ED50 [3] | ED50 [4] | also measured |
| --- | --- | --- | --- | --- | --- |
| 270 nM | 29% | Oc1ccc2c(c1)CC[C@@H](c1ccccc1)[C@H]2c1ccc(OCCN2CCCC2)cc1 | >500 µg/day/kg | >500 µg/day/kg |  |
| 9.75 nM | 16% | Oc1ccc2c(c1)CC[C@H](c1ccccc1)[C@H]2c1ccc(OCCN2CCCC2)cc1 |  |  |  |
| 47.1 nM |  | Oc1ccc2c(c1)CCC(c1ccccc1)=C2c1ccc(OCCN2CCCC2)cc1 |  |  |  |
| 11.1 nM | 60% | Oc1ccc2c(c1)CC[C@H](c1ccccc1)[C@@H]2c1ccc(OCCN2CCCC2)cc1 (stereo in doubt; 9) [LASOFOXIFENE] |  |  |  |
| 11.3 nM |  | Oc1ccc2c(c1)CC[C@H](c1ccccc1)[C@@H]2c1ccc(OCCN2CCCC2)cc1 (stereo in doubt; 14) [LASOFOXIFENE] | <1 µg/day/kg | 10 µg/day/kg | F [2]: 62%; bioavailability [5]: 45% |
